target: T1, UGT8 (Homo sapiens, UniProt Q16880); experiment: In vitro sulfatide (SFT) synthesis inhibition in OE19 cells, LC-MS/MS readout; format: cell-based; settings: 72 hr, sulfatide by LC-MS/MS, read-out: Potency range (IC50, In-vitro SFT)
T1 construct: host or cells: OE19 cells
T1 sequence (Q16880 21-541): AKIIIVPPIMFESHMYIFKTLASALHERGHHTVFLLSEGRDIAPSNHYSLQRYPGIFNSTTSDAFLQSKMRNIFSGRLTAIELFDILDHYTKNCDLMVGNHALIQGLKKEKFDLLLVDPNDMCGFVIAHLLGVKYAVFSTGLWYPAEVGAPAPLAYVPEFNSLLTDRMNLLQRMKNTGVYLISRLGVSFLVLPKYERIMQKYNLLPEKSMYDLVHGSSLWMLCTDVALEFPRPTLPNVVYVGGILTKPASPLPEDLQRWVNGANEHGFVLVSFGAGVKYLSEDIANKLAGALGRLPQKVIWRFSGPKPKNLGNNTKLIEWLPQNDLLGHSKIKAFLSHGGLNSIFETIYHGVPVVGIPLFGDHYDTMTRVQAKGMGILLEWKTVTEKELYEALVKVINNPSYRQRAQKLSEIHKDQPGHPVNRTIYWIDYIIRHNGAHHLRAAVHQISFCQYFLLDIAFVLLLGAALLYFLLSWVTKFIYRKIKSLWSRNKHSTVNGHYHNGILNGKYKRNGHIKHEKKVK
Method: For medium throughput screening, library compounds were dispensed into CellBIND 384 well plates to a final concentration of 10 μM. OE19 cells (Sigma) were grown in to 70-90% confluency in RPMI 1640+L-glutamine and […]; were trypsinized to achieve suspension and were aliquoted at 2,500 cells/well, total well volume 50 μl. Plates were incubated 72 hr at 37° C. in 5% CO2; supernatant was removed and plates were dried, heat-sealed and stored at −20° C. until analysis.
For IC50 determinations, the same procedure was followed except that test compounds were added to the plate as dose-downs in triplicate to yield concentration response curves.
Mass Spectrometer Analysis of Sulfatide (SFT):
Assay plates were thawed and 85 μl mobile phase B (5 mM ammonium formate^+0.2% formic acid in 50:50 methanol:acetonitrile). Fifteen μl 20 ng/ml C17 SFT in mobile phase B was added as an internal standard.
SFT was analyzed using an Applied Biosystems API-4000 triple quad mass spectrometer interfaced to a Thermo Scientific Multiplex system (LX-4) equipped with four pumps. Chromatography of OE19 cell samples or 2B5-mouse cells treated with compounds was performed using a Waters Acquity UPLC BEH C8 2.1×50 mm column with 1.7 um particle size. The chromatography was performed using the following mobile phases. Mobile phase A (MPA): 0.2% formic acid and 5 mM ammonium formate in deionized water; MPB: see above. The LC method was run in isocratic mode for 4 sequentially running columns using 95% MPB and 5% MPA with flow rate of 1 ml/min and a column temperature of 60° C.
The Triple quad mass spectrometer was run in Negative Ionization mode monitoring the following MRM transitions and using the following parameters:
Electrospray voltage was […], and source temperature was 550° C.

**Q.** Which IC50 does the source give for `CNC(=O)c1csc2c(C(F)(F)F)nc(N3CCC(OC(=O)N[C@@H](C)COC)CC3)nc12` [Example 186, 1-(7-(Methylcarbamoyl)-4-(trifluoromethyl)thieno[3,2-d]pyrimidin-2-yl)piperidin-4-yl (S)-(1-methoxypropan-2-yl)carbamate] here?
**A.** < 100 nM

**Q.** Which IC50 does the source give for `CNC(=O)c1csc2c(C(F)(F)F)nc(N3CCC(OC(=O)N[C@@H](C)C4CC4)CC3)nc12` [Example 187, 1-(7-(Methylcarbamoyl)-4-(trifluoromethyl)thieno[3,2-d]pyrimidin-2-yl)piperidin-4-yl-(S)-(1-cyclopropylethyl)carbamate] here?
**A.** < 100 nM

**Q.** Which IC50 does the source give for `CNC(=O)c1csc2c(C(F)(F)F)cc(OC3(C)CN(C(=O)OCCOC(F)(F)F)C3)nc12` [Example 254, 2-(Trifluoromethoxy)ethyl 3-methyl-3-((3-(methylcarbamoyl)-7-(trifluoromethyl)thieno[3,2-b]pyridin-5-yl)oxy)azetidine-1-carboxylate] here?
**A.** < 100 nM

**Q.** For `CNC(=O)c1csc2c(C(F)(F)F)cc(OC3CC4COCC(C3)N4C(=O)OCCOC(F)(F)F)nc12` (racemic) [Example 629, 2-(Trifluoromethoxy)ethyl (+/−)-endo7-((3-(methylcarbamoyl)-7-(trifluoromethyl)thieno[3,2-b]pyridin-5-yl)oxy)-3-oxa-9-azabicyclo[3.3.]nonane-9-carboxylate], which IC50 is on record?
**A.** < 100 nM

**Q.** For `CNC(=O)c1csc2c(C(F)(F)F)cc(N3CCC(OC(=O)N4CCn5nccc5C4)CC3)nc12` [Example 95, 1-(3-(Methylcarbamoyl)-7-(trifluoromethyl)thieno[3,2-b]pyridin-5-yl)piperidin-4-yl 6,7-dihydropyrazolo[1,5-a]pyrazine-5(4H)-carboxylate], which IC50 is on record?
**A.** < 100 nM

**Q.** How did the IC50 turn out when `CNC(=O)c1csc2c(C(F)(F)F)cc(C3CC4(C3)CN(C(=O)OC(C)(C)C)C4)nc12` [Example 574, tert-Butyl 6-(3-(methylcarbamoyl)-7-(trifluoromethyl)thieno[3,2-b]pyridin-5-yl)-2-azaspiro[3.3]heptane-2-carboxylate] was run?
**A.** < 100 nM

**Q.** How did the IC50 turn out when `CNC(=O)c1csc2c(C(F)(F)F)cc(O[C@H]3CCN(C(=O)OC(C)(C)C)C3)nc12` [Example 593, tert-Butyl (S)-3-((3-(methylcarbamoyl)-7-(trifluoromethyl)thieno[3,2-b]pyridin-5-yl)oxy)pyrrolidine-1-carboxylate] was run?
**A.** 100 to 1000 nM

**Q.** Which IC50 does the source give for `CNC(=O)c1csc2c(C(F)(F)F)c(Cl)c(N3CCN(CC(=O)NC(C)C)CC3)nc12` [Example 636, 6-Chloro-5-[4-[2-(isopropylamino)-2-oxo-ethyl]piperazin-1-yl]-N-methyl-7-(trifluoromethyl)thieno[3,2-b]pyridine-3-carboxamide] here?
**A.** 100 to 1000 nM

**Q.** For `CNC(=O)c1csc2c(C(F)(F)F)cc(OC3CCN(C(=O)OC(C)(C)C)C3)nc12` (centres unmarked) [Example 589, tert-Butyl 3-((3-(methylcarbamoyl)-7-(trifluoromethyl)thieno[3,2-b]pyridin-5-yl)oxy)pyrrolidine-1-carboxylate], which IC50 is on record?
**A.** 100 to 1000 nM

**Q.** `COC(=O)c1csc2c(C(F)(F)F)cc(N3CCN(CC(=O)NC(C)C)CC3)nc12` [Example 10, Methyl 5-(4-(2-(isopropylamino)-2-oxoethyl)piperazin-1-yl)-7-(trifluoromethyl)thieno[3,2-b]pyridine-3-carboxylate] was tested. Which IC50 did it give?
**A.** < 100 nM

**Q.** For `CNC(=O)c1csc2c(C)cc(N3CCN(CC(=O)NC(C)C)CC3)nc12` [Example 48, 5-(4-(2-(Isopropylamino)-2-oxoethyl)piperazin-1-yl)-N,7-dimethylthieno[3,2-b]pyridine-3-carboxamide], which IC50 is on record?
**A.** 100 to 1000 nM

**Q.** For `CC[C@H](C)NC(=O)OC1CCN(c2cc(C(F)(F)F)c3scc(C(=O)NC)c3n2)CC1` [Example 63, 1-(3-(Methylcarbamoyl)-7-(trifluoromethyl)thieno[3,2-b]pyridin-5-yl)piperidin-4-yl (S)-sec-butylcarbamate], which IC50 is on record?
**A.** < 100 nM

**Q.** With `CNC(=O)c1csc2c(C(F)F)cc(N3CCC(OC(=O)NC(C)C)CC3)nc12` [Example 452, 1-(7-(Difluoromethyl)-3-(methylcarbamoyl)thieno[3,2-b]pyridin-5-yl)piperidin-4-yl isopropylcarbamate] as the molecule, how does the IC50 read?
**A.** < 100 nM

**Q.** With `CNC(=O)c1csc2c(C(F)(F)F)cc(N3CCN(Cc4nc(C(C)C)cs4)CC3)nc12` [Example 528, 5-(4-((4-Isopropylthiazol-2-yl)methyl)piperazin-1-yl)-N-methyl-7-(trifluoromethyl)thieno[3,2-b]pyridine-3-carboxamide] as the molecule, how does the IC50 read?
**A.** < 100 nM

**Q.** Which IC50 does the source give for `CNC(=O)c1c(OC)sc2c(C(F)(F)F)c(Cl)c(N3CCN(CC(=O)NC(C)C)CC3)nc12` [Example 637, 6-Chloro-5-[4-[2-(isopropylamino)-2-oxo-ethyl]piperazin-1-yl]-2-methoxy-N-methyl-7-(trifluoromethyl)thieno[3,2-b]pyridine-3-carboxamide] here?
**A.** 100 to 1000 nM

**Q.** For `CNC(=O)c1csc2c(C(F)(F)F)c(C)c(N3CCN(CC(=O)NC(C)C)CC3)nc12` [Example 47, 5-(4-(2-(Isopropylamino)-2-oxoethyl)piperazin-1-yl)-N,6-dimethyl-7-(trifluoromethyl)thieno[3,2-b]pyridine-3-carboxamide], which IC50 is on record?
**A.** 100 to 1000 nM

**Q.** For `CNC(=O)c1csc2c(C(F)(F)F)cc(OCC3CN(C(=O)OC(C)(C)C)C3)nc12` [Example 585, tert-Butyl 3-(((3-(methylcarbamoyl)-7-(trifluoromethyl)thieno[3,2-b]pyridin-5-yl)oxy)methyl)azetidine-1-carboxylate], which IC50 is on record?
**A.** 100 to 1000 nM

**Q.** Which IC50 does the source give for `CNC(=O)c1csc2c(C(F)(F)F)cc(N3CCN(C(=O)COC(C)C)CC3)nc12` [Example 44, 5-(4-(2-Isopropoxyacetyl)piperazin-1-yl)-N-methyl-7-(trifluoromethyl)thieno[3,2-b]pyridine-3-carboxamide] here?
**A.** 100 to 1000 nM

**Q.** For `CC(C)(C)NC(=O)OC1CCN(c2cc(C(F)(F)F)c3scc(C(=O)N4CCC4)c3n2)CC1` [Example 422, 1-(3-(Azetidine-1-carbonyl)-7-(trifluoromethyl)thieno[3,2-b]pyridin-5-yl)piperidin-4-yl tert-butylcarbamate], which IC50 is on record?
**A.** 100 to 1000 nM

**Q.** `CNC(=O)c1csc2c(C(F)(F)F)c(C)c(O[C@@H]3CCN(C(=O)O[C@@H](C)COC(F)(F)F)C[C@@H]3F)nc12` [Example 181, (S)-1-(Trifluoromethoxy)propan-2-yl (3S,4R)-3-fluoro-4-((6-methyl-3-(methylcarbamoyl)-7-(trifluoromethyl)thieno[3,2-b]pyridin-5-yl)oxy)piperidine-1-carboxylate] was tested. Which IC50 did it give?
**A.** < 100 nM

**Q.** Which IC50 does the source give for `CNC(=O)c1csc2ccc(N3CCC(OC(=O)N[C@@H](C)COC(F)(F)F)CC3)nc12` [Example 142, 1-(3-(Methylcarbamoyl)thieno[3,2-b]pyridin-5-yl)piperidin-4-yl (S)-(1-(trifluoromethoxy)propan-2-yl)carbamate] here?
**A.** < 100 nM

**Q.** Which IC50 does the source give for `CNC(=O)c1csc2c(C(F)(F)F)cc(C3CC4(C3)CN(C(=O)OCCOC(F)(F)F)C4)nc12` [Example 576, 2-(Trifluoromethoxy)ethyl 6-(3-(methylcarbamoyl)-7-(trifluoromethyl)thieno[3,2-b]pyridin-5-yl)-2-azaspiro[3.3]heptane-2-carboxylate] here?
**A.** < 100 nM

**Q.** With `CNC(=O)c1csc2c(C(F)(F)F)cc(OC3CC4(CCN4C(=O)OCCOC(F)(F)F)C3)nc12` (centres unmarked) [Example 212, 2-(Trifluoromethoxy)ethyl 6-((3-(methylcarbamoyl)-7-(trifluoromethyl)thieno[3,2-b]pyridin-5-yl)oxy)-1-azaspiro[3.3]heptane-1-carboxylate] as the molecule, how does the IC50 read?
**A.** 100 to 1000 nM
